From publication PMC11371747, “The role of l-leucovorin uptake and metabolism in the modulation of 5-fluorouracil efficacy and antifolate toxicity” (Frontiers in Pharmacology, 2024)
Several values for one entry are separate records, joined by “and”; a condition that tells them apart may be missing. Identical values can stand only once.

Key:
[1] = biological target: T1, human PCFT (Homo sapiens, UniProt Q96NT5); assay: Inhibition of PCFT-mediated [3H]-l-LV influx in CHO/C5-PCFT cells; assay type: cell-based, Chinese hamster (CHO cells); conditions: for IC50: pH 5.5, 3 min, read-out: Concentration for 50% inhibition of PCFT-mediated [3H]-l-LV influx
T1 construct: expressed in transfected cells; host or cells: CHO/C5 (RFC-deficient Chinese hamster ovary cells, no PCFT)
T1 sequence (Q96NT5 1-459): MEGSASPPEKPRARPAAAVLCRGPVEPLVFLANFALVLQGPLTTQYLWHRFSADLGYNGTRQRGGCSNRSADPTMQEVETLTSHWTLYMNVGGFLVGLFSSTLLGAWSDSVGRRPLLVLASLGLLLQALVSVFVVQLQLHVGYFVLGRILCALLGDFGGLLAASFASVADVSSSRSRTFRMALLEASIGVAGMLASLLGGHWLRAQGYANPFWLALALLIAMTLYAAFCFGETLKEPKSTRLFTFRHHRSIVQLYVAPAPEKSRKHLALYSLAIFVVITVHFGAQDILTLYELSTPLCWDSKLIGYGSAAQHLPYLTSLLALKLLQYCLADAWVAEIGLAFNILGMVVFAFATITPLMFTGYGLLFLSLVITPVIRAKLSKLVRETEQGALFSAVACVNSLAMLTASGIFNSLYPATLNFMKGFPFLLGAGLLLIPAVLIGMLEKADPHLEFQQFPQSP
Method: (§1) In order to determine whether the LV isomers were substrates for either folate receptor α (FRα), RFC and/or PCFT, we used model systems with established overexpression of these receptors or transporters ([Westerhof et al., 1995a]; [Westerhof et al., 1995b]; [Lasry et al., 2008]; [Van der Heijden et al., 2009]).
The competitive inhibition by 2.5 μM [^3H]-l-LV influx of PCFT was measured essentially as described for the RFC assay, except that the incubation time was 3 min, at pH 5.5 (the optimal pH for PCFT) and pH 7.4 with increasing amounts of unlabelled LV stereoisomers/antifolate drug. For PCFT too, relative affinities were expressed as the concentration of unlabelled drug necessary to inhibit 50% of [^3H]-l-LV influx.

[2] = system: WiDr LF/LV cells; assay: Growth inhibition, SRB assay, WiDr LF/LV; assay type: cell-based, human; conditions: WiDr-LF cells, 5 µM d-LV
Method: (§2) Briefly, cells were seeded in triplicate in 96-well plates at their pre-established optimal density (CHO cells: 2,500 cells/100 μL; WiDr and HT29: 3,500 cells/100 μL; WiDr-LF/LV, LS174T: 5,000 cells/100 μL; CaCo2, CaCo2-LF/LV, H292, H28 and MSTO-211H: 6,000 cells/100 μL; H460, SW948 and SW1398: 7,000 cells/100 μL) and were allowed to attach for ∼ 24 h at 37°C in 5% CO2 and 100% humidified incubator. Thereafter, 100 μL of drug dilution without LV, or with 5 μM l-LV/5 μM d-LV/10 μM dL-LV (or any LV alone) were added. Cells were allowed to grow for 72 h at 37°C in 5% CO2 and 100% humidity. The t = 0 h control plate consisted of cells plated on the same day as the other cells, but after 24 h at 37°C in 5% CO2 and 100% humidity, only 100 μL medium was added and the cells were fixed immediately with 50% trichloroacetic acid (TCA) in milliQ water (25 μL per well) and put at 4°C for at least 1 h. Plates were washed five times with water and dried. Cells were stained with the SRB protein dye (0.4% (w/v) in 1% acetic acid. Excess dye was washed away four times with 1% acetic acid and plates were dried again. 200 μL of Tris (10 mM Tris (hydroxymethyl)-aminomethane in MQ) was added and optical density (OD) was read at 492 nm after mixing 2–3 min on a plate shaker.

[3] = biological target: T2, reduced folate carrier (RFC/SLC19A1) (Homo sapiens, UniProt P41440); assay: Inhibition of RFC-mediated [3H]-l-LV influx in CEM-7A cells; assay type: cell-based; conditions: for IC50: 5 µM [3H]-l-LV, 2 min, 37°C, read-out: Concentration for 50% inhibition of [3H]-l-LV influx (RFC)
T2 construct: CEM-7A cells, which display 30-fold RFC overexpression relative to wild-type CCRF-CEM cells; endogenous in cells; host or cells: CEM-7A (CCRF-CEM variant, RFC+++ 30-fold)
T2 sequence (P41440 1-591): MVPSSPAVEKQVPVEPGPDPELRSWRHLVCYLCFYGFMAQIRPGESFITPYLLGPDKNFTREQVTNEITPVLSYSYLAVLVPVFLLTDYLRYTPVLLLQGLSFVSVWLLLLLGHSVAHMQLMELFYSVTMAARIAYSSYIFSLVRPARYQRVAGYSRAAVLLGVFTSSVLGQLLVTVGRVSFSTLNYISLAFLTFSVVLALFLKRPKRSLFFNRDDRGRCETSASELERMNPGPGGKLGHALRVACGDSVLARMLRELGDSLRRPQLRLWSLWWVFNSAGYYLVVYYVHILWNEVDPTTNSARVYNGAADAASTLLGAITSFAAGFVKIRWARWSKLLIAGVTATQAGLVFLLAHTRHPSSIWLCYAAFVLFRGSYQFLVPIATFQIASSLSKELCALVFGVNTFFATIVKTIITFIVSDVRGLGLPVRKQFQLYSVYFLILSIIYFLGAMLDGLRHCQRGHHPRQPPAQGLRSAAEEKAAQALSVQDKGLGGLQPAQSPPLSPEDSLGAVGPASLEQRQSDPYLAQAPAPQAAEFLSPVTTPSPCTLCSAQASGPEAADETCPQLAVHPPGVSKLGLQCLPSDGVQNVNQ
Method: as §1
CEM-7A cells (2 × 10^6) were suspended in 1 mL HBSS and the assay was initiated by addition of 25 μL 200 μM [^3H]-l-LV; 5,000 pmol (i.e., 5 μM final concentration). Incubations proceeded for 2 min at 37°C in the absence and presence of increasing amounts of unlabelled LV/antifolate drug. Blanks consisted of a separate incubation at 4°C or incubation with 100-fold molar excess of unlabelled l-LV. [^3H]-l-LV influx was terminated by adding 9 mL ice-cold HBSS, centrifugation and an additional wash of the cells with 10 mL ice-cold buffer. Cell pellets were then assessed for radioactivity. Relative affinities for RFC are expressed as the concentration of unlabelled drug necessary to inhibit [^3H]-l-LV uptake by 50%.

[4] = system: colon cancer cell lines; assay: Growth inhibition, SRB assay, panel of colon cancer cell lines; assay type: cell-based, human
Method: as §2

[5] = biological target: T3, folate receptor α (FRα) (Homo sapiens, UniProt P15328); assay: Intact cell competitive binding assay, displacement of [3H]-folic acid from FRα in KB cells; conditions: for Relative affinity for FRα: 100 pmol [3H]-FA, inverse ratio of amount of drug displacing 50% of [3H]-FA, FA set to 1
T3 construct: endogenous in cells; host or cells: KB cells (FRα++)
T3 sequence (P15328 25-257): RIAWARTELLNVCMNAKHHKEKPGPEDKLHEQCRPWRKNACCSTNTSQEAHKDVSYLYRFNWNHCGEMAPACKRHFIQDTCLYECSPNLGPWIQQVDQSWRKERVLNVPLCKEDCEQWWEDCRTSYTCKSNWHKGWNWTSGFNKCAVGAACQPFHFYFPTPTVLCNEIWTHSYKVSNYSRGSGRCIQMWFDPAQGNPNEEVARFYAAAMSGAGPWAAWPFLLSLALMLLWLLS
Method: as §1
For FRα we used KB cells ([Westerhof et al., 1995b]). An intact cell binding assay for competitive binding was performed as described previously ([Westerhof et al., 1995a]). Briefly, cells were washed with Hanks balanced salt solution and 6 mM glucose (HBSS, pH 7.4), suspended in 1 mL of this solution (1*10^6 for KB cells) and incubated at 4°C for 15 min with 100 pmol [^3H]-folic acid [(^3H)-FA], in the presence and absence of unlabelled folic acid or LV stereoisomers. Cells were collected by centrifugation and analysed for radioactivity. Relative affinities for FRα were defined as the inverse ratio of compound to displace 50% of radioactive folic acid from FRα. The relative affinity of folic acid was set at 1.

[6] = biological target: T4, thymidylate synthase (TS) (Homo sapiens, UniProt P04818); assay: TS in situ inhibition assay (TSIA) in colon cancer cells; assay type: cell-based; conditions: WiDr, 5 µM d-LV
T4 construct: The principle of this assay is the measurement of TS enzymatic activity in intact cells; endogenous in cells; host or cells: colon cancer cell lines (WiDr, WiDr-LF, SW1398, LS174T and others)
T4 sequence (P04818 2-313 limits assumed): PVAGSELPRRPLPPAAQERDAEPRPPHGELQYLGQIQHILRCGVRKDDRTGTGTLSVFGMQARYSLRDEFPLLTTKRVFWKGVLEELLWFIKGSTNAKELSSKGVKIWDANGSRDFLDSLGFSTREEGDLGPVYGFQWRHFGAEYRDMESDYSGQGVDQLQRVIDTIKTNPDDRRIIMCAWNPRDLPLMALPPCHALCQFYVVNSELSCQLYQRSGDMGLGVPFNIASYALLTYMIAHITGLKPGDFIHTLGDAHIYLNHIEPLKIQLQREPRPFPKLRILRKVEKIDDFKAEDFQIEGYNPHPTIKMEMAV
Description: The principle of this assay is the measurement of TS enzymatic activity in intact cells. Intact cells will readily internalize radioactively labelled [5-^3H]-deoxycytidine, which will be rapidly converted by deoxycytidine kinase (dCK) to [5-^3H]-dCMP and subsequently deaminated to [5-^3H]-dUMP, which will then serve as a substrate in the TS catalysed reaction to dTMP and ^3H2O; the quantity of ^3H2O formed over time is a measure of intracellular TS activity. […] This is because dCK has a higher, cell cycle independent activity than thymidine kinase 1, which is a cell cycle dependent enzyme. For this purpose, cancer cells were cultured in six wells plates at 2.5 × 10^5 cells/2 mL/well for 24 h. Thereafter, cells were exposed to drugs with or without the LV formulations at the indicated concentrations for 4 h. 2 h before the end of the incubation period [5-^3H]-2′-deoxycytidine (final concentration 1 µM) was added to the cells. […] In most cell lines we quantified dCK activity and dCK mRNA levels.

[7] = CHO/C5/PCFT cells, 2.5 µM [3H]-l-LV

SMILES | PCFT influx rate of [3H]-l-LV at pH 7.4 compared to pH 5.5 [1, 7] | Increase of IC50 value for 5FU by d-LV [2] [fold] | IC50 [3] [µM] | Modulation of 5FU sensitivity ([4]; all colon cancer cell lines) | Molar excess over folic acid required for displacement of [3H]-FA binding from FRα [5] [fold] | Relative affinity for FRα [5] | Protective effect on the TSIA against antifolates [6] | IC50 [1, 7] [µM] | RFC substrate affinity of l-LV over d-LV [3] [fold] | Modulation (enhanced efficacy) of 5FU ([4]; selected colon cancer cell lines: WiDr, HT29, SW948 and SW1398 cells, 5 µM l-LV) [fold] | PCFT substrate affinity of l-LV over d-LV [1] [fold]
Nc1nc(=O)c2c([nH]1)NC[C@H](CNc1ccc(C(=O)N[C@@H](CCC(=O)O)C(=O)O)cc1)N2C=O [[^3H]-l-LV, [3′,5′,7,9-^3H(N)]-(6S)-Leucovorin] | 11% and 11.5% | – | – | – | – | – | – | – | – | – | –
Nc1nc2c(c(=O)[nH]1)N(C=O)[C@H](CNc1ccc(C(=O)N[C@@H](CCC(=O)O)C(=O)O)cc1)CN2 [d-LV, (6R)-leucovorin] | – | 1.5 | 44 | ineffective | 69 | 0.016 | does not display any protective effect | 13.3 | – | – | –
Nc1nc2c(c(=O)[nH]1)N(C=O)C(CNc1ccc(C(=O)N[C@@H](CCC(=O)O)C(=O)O)cc1)CN2 (stereo partly drawn) [l-LV, 5-formyltetrahydrofolate] | – | – | 5.5 | – | 15 | 0.073 | – | 4 | 8 | 2 | 3.5
